Data published in patent US7385027B2, “Membrane-permeable peptide capable of calpain inhibition” (University of Kentucky Research Foundation, priority 2003, dated 2008).

Assays:
calpain I = target: T1, calpain I (Homo sapiens, UniProt P07384); assay: Tau protein degradation by calpain I; type: biochemical; details: 100 μM LSEAL; FIG. 3
T1 sequence (P07384 1-714): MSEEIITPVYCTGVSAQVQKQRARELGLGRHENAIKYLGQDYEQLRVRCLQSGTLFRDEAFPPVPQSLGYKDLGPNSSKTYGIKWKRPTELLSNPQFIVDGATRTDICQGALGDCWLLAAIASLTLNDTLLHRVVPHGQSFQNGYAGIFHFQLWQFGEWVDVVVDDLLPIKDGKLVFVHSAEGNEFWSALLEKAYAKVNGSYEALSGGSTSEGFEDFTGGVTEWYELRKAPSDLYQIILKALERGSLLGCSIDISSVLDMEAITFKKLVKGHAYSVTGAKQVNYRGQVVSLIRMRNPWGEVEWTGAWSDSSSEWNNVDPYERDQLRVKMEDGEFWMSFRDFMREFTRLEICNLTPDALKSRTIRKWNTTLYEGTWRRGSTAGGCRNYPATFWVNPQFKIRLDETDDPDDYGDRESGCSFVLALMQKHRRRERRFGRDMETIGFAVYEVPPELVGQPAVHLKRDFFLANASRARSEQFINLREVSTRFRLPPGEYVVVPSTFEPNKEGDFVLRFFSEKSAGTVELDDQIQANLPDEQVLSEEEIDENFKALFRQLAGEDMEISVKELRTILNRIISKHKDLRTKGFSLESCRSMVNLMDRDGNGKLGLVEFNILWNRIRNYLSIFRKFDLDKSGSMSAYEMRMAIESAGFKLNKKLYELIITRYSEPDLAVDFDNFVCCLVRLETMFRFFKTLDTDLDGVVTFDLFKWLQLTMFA
T1 sequence (P04632 1-268 partner): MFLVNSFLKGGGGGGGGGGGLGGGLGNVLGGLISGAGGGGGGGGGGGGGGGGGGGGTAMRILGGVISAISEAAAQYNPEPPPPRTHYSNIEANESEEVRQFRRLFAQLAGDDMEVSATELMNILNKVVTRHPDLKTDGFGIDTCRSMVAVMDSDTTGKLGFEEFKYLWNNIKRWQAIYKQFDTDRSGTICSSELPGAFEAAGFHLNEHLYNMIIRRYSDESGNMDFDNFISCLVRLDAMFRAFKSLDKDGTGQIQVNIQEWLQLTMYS
Experimental: Another experiment was conducted to show the effect of the proteins of the present invention on the tau protein. The tau protein is a microtubule-associated protein (MAP). Tau is a well-described calpain I substrate.

[1] = test system: cultured cortical neurons from rat brains; assay: Ionomycin-induced cell death of cultured cortical neurons (calcein AM / propidium iodide); type: cell-based
From the text: (§1) In the first experiment, cell death of the neurons was induced by exposing the culture to ionomycin. In the second experiment, cell death was induced by exposing the neurons to 30 and 60 mJ/cm^2 of UV light. The exposure to either ionomycin or UV light caused calpain I to be activated because of ionomycin-mediated calcium flux or through UV-induced receptors, channels or pore-like structures. Calcein acetoxymethyl ester was used as indicator of live neuron cells while propidium iodide was used an indicator of dead neuron cells.
In the first experiment, ten Samples were prepared. Sample 1 was a control Sample and included the cultured cortical neurons only. A baseline for the average percentage of cell death was determined to be 19%. In Sample 2, 0.4 μM ionomycin was added to the cultured neuron cells to activate calpain I. No LSEAL was added to these Samples. The addition of ionomycin to these Samples caused the percentage of dead cells to more than triple to an average of 68%. Sample 3 was the same as Sample 2 except that 0.00001 micromolar of LSEAL was added before the ionomycin was added. The percentage of dead cells averaged of 106% of no LSEAL. Sample 4 was the same as Sample 3 except that 0.0001 micromolar of LSEAL was added. The percentage of cell death was 83% of no LSEAL. Sample 5 was the same as Sample 4 except that 0.001 micromolar LSEAL was added. The percentage of cell death was 63% of no LSEAL. Sample 6 was the same as Sample 5 except that 0.01 micromolar LSEAL was added. The percentage of cell death was 61% of no LSEAL. Sample 7 was the same as Sample 6 except that 0.1 micromolar LSEAL was added. The percentage of cell death was 57% of no LSEAL. Sample 8 was the same as Sample 7 except that 1.0 micromolar LSEAL was added. The percentage of cell death was 48% of no LSEAL. Sample 9 was the same as Sample 8 except that 10.0 micromolar LSEAL was added. The percentage of cell death was 35% of no LSEAL. Sample 10 was the same as Sample 9 except that 100 micromolar LSEAL was added. The percentage of cell death was 33% of no LSEAL. […] The results are summarized in Table 1 below and the results are graphically illustrated in FIG. 1

[2] = test system: cultured cortical neurons from rat brains; assay: UV light-induced cell death of cultured cortical neurons; type: cell-based; details: for Dead Cells / Live Cells: cell count
From the text: as §1
In the second experiment, cell death of the cultured cortical neurons was induced by UV light. […] The percentage of cell death was 18%. Sample 14 is the same as Sample 11, except for the addition of 100 μM LSEAL to the culture. The percentage of cell death was reduced from 18% to 14%. Sample 12 was exposed to 30 mJ/cm^2 of UV light. The percentage of cell death was 58%. The inclusion of the LSEAL before exposure reduced the percentage of cell death to 25%. See Sample 15. […] The data for the experiment is set forth below in Tables 3 and 4, and is graphically illustrated in FIG. 2.

[3] = 0 mJ/cm^2 UV light, LSEAL (Sample 14)
[4] = 30 mJ/cm^2 UV light, LSEAL (Sample 15)
[5] = 60 mJ/cm^2 UV light, LSEAL (Sample 16)

Leu-Ser-Glu-Ala-Leu (LSEAL; listed as Homo sapiens)
Effect on tau degradation by calpain I (calpain I): inhibits degradation | Percentage Average cell death (ratioed to 0 LSEAL) ([1]; 0.00001 micromolar LSEAL added before 0.4 μM ionomycin (Sample 3)): 106% | Percentage Average cell death (ratioed to 0 LSEAL) ([1]; 0.0001 micromolar LSEAL, 0.4 μM ionomycin (Sample 4)): 83% | Percentage Average cell death (ratioed to 0 LSEAL) ([1]; 0.001 micromolar LSEAL, 0.4 μM ionomycin (Sample 5)): 63% | Percentage Average cell death (ratioed to 0 LSEAL) ([1]; 0.01 micromolar LSEAL, 0.4 μM ionomycin (Sample 6)): 61% | Percentage Average cell death (ratioed to 0 LSEAL) ([1]; 0.1 micromolar LSEAL, 0.4 μM ionomycin (Sample 7)): 57% | Percentage Average cell death (ratioed to 0 LSEAL) ([1]; 1.0 micromolar LSEAL, 0.4 μM ionomycin (Sample 8)): 48% | Percentage Average cell death (ratioed to 0 LSEAL) ([1]; 10.0 micromolar LSEAL, 0.4 μM ionomycin (Sample 9)): 35% | Percentage Average cell death (ratioed to 0 LSEAL) ([1]; 100 micromolar LSEAL, 0.4 μM ionomycin (Sample 10)): 33% | % Dead Cells ([2]; 0 mJ/cm^2 UV light, 100 μM LSEAL (Sample 14), control without LSEAL 18%): 14% | Dead Cells [2, 3]: 5 | Live Cells [2, 3]: 30 | Dead Cells [2, 4]: 26 | Live Cells [2, 4]: 78 | % Dead Cells ([2]; 30 mJ/cm^2 UV light, LSEAL included before exposure (Sample 15), control without LSEAL 58%): 25% | Dead Cells [2, 5]: 25 | Live Cells [2, 5]: 56 | % Dead Cells ([2]; 60 mJ/cm^2 UV light, culture containing LSEAL (Sample 16), control without LSEAL 74%): 30%
